Values joined by “and” are separate entries in the source; they are usually repeats but may differ in a detail not shown here. Equal values may be shown once. Toxic doses and inconclusive results are not listed. The calls were made as follows: active = survival T/C of 150% or more; inactive = T/C below 125% in these data.
Test system: P388 leukemia ip, CD2F1 mice, survival T/C
Experiment: NCI In Vivo Anticancer Drug Screen. Data for tumor model P388 Leukemia (intraperitoneal) in CD2F1 (CDF1) mice
Conditions: endpoint: median survival time, higher = longer survival
Outline: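 Mice carrying the transplanted tumor received test compound or vehicle. Survival was recorded in each group, and the value is the treated-group measurement divided by that of the vehicle-treated control group.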

[1] = dose: 100.0 mg/kg/injection, schedule: Q04DX002 (ip), vehicle: saline with Tween-80
[2] = dose: 200.0 mg/kg/injection, schedule: Q04DX002 (ip), vehicle: saline with Tween-80

Measured: T/C

Cc1cc(O)c(C(c2ccncc2)c2c(O)cc(C)[nH]c2=O)c(=O)[nH]1
inactive: dose: 50.0 mg/kg/injection, schedule: Q01DX009 (ip), vehicle: saline with Tween-80 102 % of control | dose: 100.0 mg/kg/injection, schedule: Q01DX009 (ip), vehicle: saline with Tween-80 95 % of control | dose: 200.0 mg/kg/injection, schedule: Q01DX009 (ip), vehicle: saline with Tween-80 94 % of control

[Cl][Pt+2][Cl].[NH-]c1nc2ccc(Br)cc2s1.[NH-]c1nc2ccc(Br)cc2s1
inactive: [1] 103 % of control | [2] 91 % of control

CCCC(=O)Nc1ccc(C2=NNC(=O)C3CC23)cc1 (stereo not given)
inactive: dose: 50.0 mg/kg/injection, schedule: Q01DX005 (ip), vehicle: saline + Tween-80 + alcohol 99 % of control | dose: 100.0 mg/kg/injection, schedule: Q01DX005 (ip), vehicle: saline + Tween-80 + alcohol 99 % of control | dose: 200.0 mg/kg/injection, schedule: Q01DX005 (ip), vehicle: saline + Tween-80 + alcohol 97 % of control

O=C1N(c2ccccc2)N=C2CCCCCCCCCCC12O (stereo not given)
inactive: dose: 50.0 mg/kg/injection, schedule: Q01DX005 (ip), vehicle: Klucel (hydroxypropylcellulose) (HPC) 93 % of control | dose: 100.0 mg/kg/injection, schedule: Q01DX005 (ip), vehicle: Klucel (hydroxypropylcellulose) (HPC) 97 % of control | dose: 200.0 mg/kg/injection, schedule: Q01DX005 (ip), vehicle: Klucel (hydroxypropylcellulose) (HPC) 94 % of control

CC(C)CCC1=CC(=O)c2c(O)ccc(O)c2C1=O
inactive: dose: 2.5 mg/kg/injection, schedule: Q04DX002 (ip), vehicle: DMSO 97 % of control | dose: 5.0 mg/kg/injection, schedule: Q04DX002 (ip), vehicle: DMSO 97 % of control | dose: 10.0 mg/kg/injection, schedule: Q04DX002 (ip), vehicle: DMSO 95 % of control

CCCCCCCCCCCC1C(C#N)C(=O)NC(=O)C1C#N (stereo not given)
inactive: dose: 50.0 mg/kg/injection, schedule: Q01DX009 (ip), vehicle: Klucel (hydroxypropylcellulose) (HPC) 103 % of control | dose: 100.0 mg/kg/injection, schedule: Q01DX009 (ip), vehicle: Klucel (hydroxypropylcellulose) (HPC) 94 % of control | dose: 200.0 mg/kg/injection, schedule: Q01DX009 (ip), vehicle: Klucel (hydroxypropylcellulose) (HPC) 100 % of control

c1ccc(C(NC2CC3CCC2C3)c2ccccc2)cc1 (stereo not given)
inactive: dose: 37.5 mg/kg/injection, schedule: Q01DX009 (ip), vehicle: saline with Tween-80 100 % of control | dose: 75.0 mg/kg/injection, schedule: Q01DX009 (ip), vehicle: saline with Tween-80 95 % of control

CC(C)SC(=S)Nc1ccc(Cl)c(C(F)(F)F)c1
inactive: dose: 50.0 mg/kg/injection, schedule: Q01DX009 (ip), vehicle: saline 106 % of control | dose: 100.0 mg/kg/injection, schedule: Q01DX009 (ip), vehicle: saline 105 % of control | dose: 200.0 mg/kg/injection, schedule: Q01DX009 (ip), vehicle: saline 110 % of control

C=CCc1cc2c(cc1C(C)c1ccc(OC)cc1)OCO2 (stereo not given)
inactive: dose: 50.0 mg/kg/injection, schedule: Q01DX005 (ip), vehicle: saline with Tween-80 106 % of control | dose: 100.0 mg/kg/injection, schedule: Q01DX005 (ip), vehicle: saline with Tween-80 109 % of control | dose: 200.0 mg/kg/injection, schedule: Q01DX005 (ip), vehicle: saline with Tween-80 117 % of control

Nc1[nH]c(=O)ncc1-c1cccc(Cl)c1
inactive: dose: 15.0 mg/kg/injection, schedule: Q01DX005 (ip), vehicle: saline with Tween-80 103 % of control | dose: 30.0 mg/kg/injection, schedule: Q01DX005 (ip), vehicle: saline with Tween-80 104 % of control | dose: 60.0 mg/kg/injection, schedule: Q01DX005 (ip), vehicle: saline with Tween-80 106 % of control and 96 % of control

OCCCCC1COC(CC2OCC(CCCCO)O2)O1 (stereo not given)
inactive: dose: 50.0 mg/kg/injection, schedule: Q01DX005 (ip), vehicle: saline 101 % of control | dose: 100.0 mg/kg/injection, schedule: Q01DX005 (ip), vehicle: saline 100 % of control | dose: 200.0 mg/kg/injection, schedule: Q01DX005 (ip), vehicle: saline 101 % of control

NC(N)=NS(=O)(=O)c1ccc(N=Cc2c3ccccc3nc3ccccc23)cc1
inactive: dose: 12.5 mg/kg/injection, schedule: Q04DX002 (ip), vehicle: Klucel (hydroxypropylcellulose) (HPC) 99 % of control | dose: 25.0 mg/kg/injection, schedule: Q04DX002 (ip), vehicle: Klucel (hydroxypropylcellulose) (HPC) 94 % of control | dose: 50.0 mg/kg/injection, schedule: Q04DX002 (ip), vehicle: Klucel (hydroxypropylcellulose) (HPC) 96 % of control | dose: 100.0 mg/kg/injection, schedule: Q04DX002 (ip), vehicle: Klucel (hydroxypropylcellulose) (HPC) 96 % of control | dose: 200.0 mg/kg/injection, schedule: Q04DX002 (ip), vehicle: Klucel (hydroxypropylcellulose) (HPC) 92 % of control | dose: 400.0 mg/kg/injection, schedule: Q04DX002 (ip), vehicle: Klucel (hydroxypropylcellulose) (HPC) 96 % of control

O=c1cc(-c2ccc(Cl)cc2)c(-c2ccc(Cl)cc2)nn1CCO
inactive: [1] 95 % of control | [2] 95 % of control | dose: 400.0 mg/kg/injection, schedule: Q04DX002 (ip), vehicle: saline with Tween-80 89 % of control

From PubChem BioAssay AID330 (DTP/NCI, 2004)
